Data reported in ChEMBL document CHEMBL3639070, “19-nor-steroid derivatives with a 15Œ±,16Œ±-methylene group and a saturated 17,17-spirolactone ring, use thereof, and medicaments containing said derivatives” (2015).

Molecular target: T1, Progesterone receptor (Homo sapiens, UniProt P06401)
T1 sequence (P06401 whole entry): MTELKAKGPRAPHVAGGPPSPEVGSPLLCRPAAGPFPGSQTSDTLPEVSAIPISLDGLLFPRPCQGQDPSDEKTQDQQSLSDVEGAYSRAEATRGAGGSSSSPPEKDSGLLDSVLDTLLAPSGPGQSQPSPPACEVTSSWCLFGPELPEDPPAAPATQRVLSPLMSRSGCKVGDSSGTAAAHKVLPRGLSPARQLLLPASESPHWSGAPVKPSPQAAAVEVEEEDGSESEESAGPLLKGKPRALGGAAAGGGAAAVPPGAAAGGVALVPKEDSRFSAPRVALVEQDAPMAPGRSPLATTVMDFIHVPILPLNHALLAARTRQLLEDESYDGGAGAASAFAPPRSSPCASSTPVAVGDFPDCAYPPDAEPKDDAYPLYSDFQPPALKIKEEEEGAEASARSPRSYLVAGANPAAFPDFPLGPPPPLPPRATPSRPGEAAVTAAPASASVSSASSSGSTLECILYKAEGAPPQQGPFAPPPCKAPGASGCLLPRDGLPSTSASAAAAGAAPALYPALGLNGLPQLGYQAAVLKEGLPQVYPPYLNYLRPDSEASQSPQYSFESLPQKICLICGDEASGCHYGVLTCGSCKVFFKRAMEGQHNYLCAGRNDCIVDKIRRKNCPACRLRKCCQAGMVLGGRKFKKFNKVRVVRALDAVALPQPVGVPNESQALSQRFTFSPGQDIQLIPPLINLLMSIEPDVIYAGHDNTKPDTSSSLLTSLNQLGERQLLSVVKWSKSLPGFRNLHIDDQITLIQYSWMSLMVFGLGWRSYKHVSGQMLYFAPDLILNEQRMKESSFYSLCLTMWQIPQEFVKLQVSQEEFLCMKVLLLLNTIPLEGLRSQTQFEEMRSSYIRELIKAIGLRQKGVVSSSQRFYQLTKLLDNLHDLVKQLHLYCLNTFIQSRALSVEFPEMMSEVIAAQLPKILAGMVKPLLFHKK
Assay: Binding Assay: Using cytosol from progesterone receptor-expressing insect cells (Hi5), competitive binding to the progesterone receptor was determined from the ability to displace 3H-progesterone as reference substance from the receptor.

## C[C@]12CCC3C4CCC(=O)C=C4[C@@H]4C[C@@H]4C3C1C1CC1[C@@]21CCC(=O)O1 (stereo partly specified)
  IC50: 16 nM
